Values after ≈ are worked out from the molar mass of the structure shown. Values joined by “and” are separate entries in the source; they are usually repeats but may differ in a detail not shown here. Identical values can stand only once.
Tests used:
Assay type in all cases: biochemical
protein glycation = assay: Protein glycation assay; settings: in vitro
Method: Briefly, 50 µl of protein solution in distil water was added to 10 µl of glyceraldehyde solution in black microplates. The plates were sealed and incubated at 37 °C for 24 h. After incubation, test compound solutions were then added. Blank containing distilled water served as a negative control (untreated), while Rutin as a positive control. The fluorescence was measured at 370 nm (excitation), and 440 nm (emission). The percentage inhibition was calculated using the following formula:
Percentinhibition=1−fluorescenceoftestwell/fluoresecenceofnegativecontrolx100

[1] = biological target: human recombinant DPP-IV enzyme (Homo sapiens, UniProt P27487); assay: DPP-IV inhibition assay; settings: in vitro; read-out: IC50 against DPP-IV (converted)
Method: The assay was carried out according to the established method with slight modification. Various concentrations of the synthesized compounds were added to human recombinant DPP-IV enzyme solution in respective wells of a 96-well plate. After incubation, pNA substrate (Gly-Pro-pNA) dissolved in Tris buffer was added to initiate the reaction and further incubated. After incubation, acetic acid solution was added to stop the reaction and the absorbance was recorded. The percentage inhibition was calculated by using the following equation:
Percentinhibition=1−(absorbanceofthetestwell/absorbanceoftheuntreatedcontrol)x100

α-amylase = assay: In vitro α-amylase inhibition; settings: for maximum inhibition of α-amylase: at 1000 μg/mL; for IC50 against α-amylase: in vitro
Method: The standard protocol of in vitro α-amylase inhibition was performed according to Naeem et al. 70 µL of a 50 mM phosphate buffer (pH 6.0) were combined with 100 µL of the reaction solution. […] (0.057 units) of an enzyme, and 50 µL of the compound being examined was added to the solution. After being thoroughly blended, a 10-minute pre-incubation at 25 °C was carried out. The absorbance of the resulting mixture was measured at a wavelength of 400 nm. Further, a solution equal to 10 µL a 0.5 mM concentration of p-nitrophenyl glucopyranoside was added to the solution, and re-incubation carried out at a 25 °C temperature. The absorbance of the solution was measured at a wavelength of 400 nm after incubation.

Row | Compound | IC50 against protein glycation (protein glycation) | IC50 [1] | maximum inhibition of α-amylase (α-amylase) | IC50 against α-amylase (α-amylase)
1 | C[C@@H]1O[C@@H](OC[C@H]2O[C@@H](Oc3c(-c4ccc(O)c(O)c4)oc4cc(O)cc(O)c4c3=O)[C@H](O)[C@@H](O)[C@@H]2O)[C@H](O)[C@H](O)[C@H]1O [Rutin, reference compound] | 20.780 µg/mL (≈ 34 µM) | – | – | –
2 | CSc1ccc(/C=C2/C(=O)Nc3cc(Cl)ccc32)cc1 [Compound 2, (E)-3-(4-(Methylthio)benzylidene)-6-chloroindolin-2-one] | 341.551 µg/mL (≈ 1130 µM) | 156 µM | 75% | 42.691 µg/mL and 42.69 µg/mL
3 | Cc1ccc(/C=C2/C(=O)Nc3cc(Cl)ccc32)c(C)c1 [Compound 1, (E)-3-(2,4-Dimethylbenzylidene)-6-chloroindolin-2-one] | 210.592 µg/mL (≈ 742 µM) | 110 µM | 80% | 32.917 µg/mL (≈ 116 µM)

Reference: PMC12084062, “Integrating in vitro and in silico approaches for exploring antidiabetic potential of dimethyl and thiomethyl indolinone derivatives” (PLOS One, 2025)
